The text below walks through data of PMC12434670 (Journal of Medicinal Chemistry, 2025).

SMILES strings stand for the structures. “Also recorded” adds a separate entry of the source. Read-outs that look alike come from different tables or passages of the source.

The test system of data set [1] is A/H1N1 (Virg09) pseudovirus. Put plainly: organism not typed. Format: cell-based, influenza A virus. Conditions: for EC50: MDCK, 72 h, read-out: EC50 for A/H1N1 (Virg09) pseudovirus entry.
Data set [2] has as its system A/H5N1 (FL22, A/bald eagle/FL/W22-114/2022) pseudovirus. Put plainly: organism not typed. Format: cell-based, influenza A virus. Conditions: read-out: EC50 for A/H5N1 (FL22) pseudovirus entry.
The test system of data set [3] is H1 HA protein (strain A/California/06/09). Format: biochemical, influenza A virus.
Data set [4] has as its system A/H1N1 virus A/PR/8/34 (PR8). Description: microbe, parasite or virus in culture. Conditions: Influenza A virus, MDCK. Format: cell-based.
Data set [5] concerns A/H1N1 virus A/Virginia/ATCC3/2009 (Virg09). Description: microbe, parasite or virus in culture. Format: cell-based, influenza A virus.
For data set [6], the system named is A/H1N1 virus Virg09 in Calu-3 cells. Put plainly: microbe, parasite or virus in culture. Format: cell-based. Conditions: Influenza A virus, H1N1, Calu-3, 72 h, read-out: EC50 in Calu-3 cells infected with Virg09.
Data set [7] concerns MDCK cells. Conditions: for Cytotoxicity MCC, Microscopy: dog.
The test system of data set [8] is A/H1N1 virus. Put plainly: microbe, parasite or virus in culture. Format: cell-based, influenza A virus.
Data set [9] is described as follows: in vitro. Conditions: dog.
In data set [10] the target is H1 HA (Influenza A virus, UniProt C3W5S1). Description: cell-based.
H1 HA, sequence (C3W5S1 18-344 limits assumed): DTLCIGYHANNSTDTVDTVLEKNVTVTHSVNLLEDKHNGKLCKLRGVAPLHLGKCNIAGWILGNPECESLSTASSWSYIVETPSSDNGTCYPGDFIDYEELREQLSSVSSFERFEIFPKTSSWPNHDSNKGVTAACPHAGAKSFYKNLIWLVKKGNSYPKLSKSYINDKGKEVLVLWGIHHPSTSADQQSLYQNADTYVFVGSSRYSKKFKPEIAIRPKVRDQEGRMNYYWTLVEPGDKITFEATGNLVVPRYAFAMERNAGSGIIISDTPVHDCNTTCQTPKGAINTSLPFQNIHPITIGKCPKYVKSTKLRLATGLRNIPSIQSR
H1 HA, sequence (C3W5S1 345-566 limits assumed): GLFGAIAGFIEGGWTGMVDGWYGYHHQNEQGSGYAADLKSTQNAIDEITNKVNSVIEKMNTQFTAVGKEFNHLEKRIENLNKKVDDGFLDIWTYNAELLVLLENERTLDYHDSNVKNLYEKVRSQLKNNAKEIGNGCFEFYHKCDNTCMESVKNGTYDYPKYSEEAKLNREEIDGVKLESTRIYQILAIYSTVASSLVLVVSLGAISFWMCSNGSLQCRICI
Data set [11] deals with H5 HA (strain A/duck/Hunan/795/2002). Format: cell-based, influenza A virus.
[12] abbreviates: read-out: Antiviral EC50 against A/H1N1 virus, PR8 strain, MTS.
[13] abbreviates: read-out: Antiviral EC50 against A/H1N1 virus, PR8 strain, Microscopy.
Setting [14] is: Influenza A virus, MDCK, read-out: Antiviral EC50 against A/H1N1 virus, Virg09 strain, MTS.
The mark [15] stands for this setting: Influenza A virus, MDCK, read-out: Antiviral EC50 against A/H1N1 virus, Virg09 strain, Microscopy.
Setting [16] is: read-out: Antiviral EC50 for PR8 virus.
Where [17] appears, read: Influenza A virus, MDCK, read-out: Antiviral EC50 for Virg09 virus.
The mark [18] stands for this setting: read-out: Antiviral EC50 against A/H1N1 virus, Virg09 strain, MTS.

As to `CCOC(=O)c1c(CSc2ccccc2)n(C)c2cc(Br)c(O)c(CN(C)C)c12` [Arbidol, reference compound], the “Fold lower potency than VF-57a in pseudovirus entry” value in [1] is approximately 20 fold. The EC50 is 15 µM in [1] and 10 µM in data set [2] (MDCK, 72 h). Besides, the “Binding of H1 HA to stem antibody C179 after acidic incubation (pH 5.2) in presence of compound” value in [3] was “only slightly protected”.
With `O=C1c2c(O)c(=O)ccn2N([C@@H]2c3ccccc3SCc3c2ccc(F)c3F)[C@@H]2COCCN12` [BXA, baloxavir acid], the EC50 in [4] (setting [12]) amounted to 0.0061 ± 0.0017 µM; in data set [4] (setting [13]), 0.0061 ± 0.002 µM; in [5] (setting [14]) it was 0.0032 ± 0.0004 µM; in data set [5] (setting [15]), 0.0035 µM; in data set [6] it was 0.0011 µM. Further, the “Cytotoxicity MCC, Microscopy” value in data set [7] was more than 0.1 µM.
For the molecule `Cc1cc(CNC(=O)c2cc(F)cc(C(F)(F)F)c2)c(C)s1` [Compound 22, N-[(2,5-Dimethylthiophen-3-yl)methyl]-3-fluoro-5-(trifluoromethyl)benzamide], the EC50 is 1.1 ± 0.3 µM in data set [4] (setting [12]); 1.5 ± 0.6 µM in [4] (setting [13]); approximately 1 µM in data set [4] (setting [16]); 0.4 µM in data set [5] (setting [14]); 1.7 ± 1.1 µM in data set [5] (setting [15]); approximately 1 µM in data set [5] (setting [17]). The EC50 in [5] (setting [18]) amounted to 0.44 ± 0.19 µM. Further, the “ΔΔG (exp), change VF-57a → labelled compound” value in [5] came out at 0.2 kcal/mol. In data set [5], the “ΔΔG (exp), change labelled compound → VF-57a” value is reported as “–0.2 kcal/mol”. Further, in data set [8], the “Selectivity index (ratio of CC50 to EC50, SI)” value is more than 100. For the same molecule, in data set [7], the “Cytotoxicity at 100 μM (in words)” value is given as “without showing any cytotoxicity”. The “Cytotoxicity MCC, Microscopy” value in [7] was more than 100 µM. Moreover, the CC50 in [9] was more than 100 µM.
`Cc1cc(CNC(=O)c2cc(Cl)cc(C(F)(F)F)c2)c(C)s1` [Compound 23, 3-Chloro-N-[(2,5-dimethylthiophen-3-yl)methyl]-5-(trifluoromethyl)benzamide]: the EC50 was 0.92 ± 0.19 µM in data set [4] (setting [12]); 1.1 ± 0.2 µM in data set [4] (setting [13]); 1 µM in data set [4] (setting [16]); 0.3 µM in data set [5] (setting [14]); 0.71 ± 0.45 µM in data set [5] (setting [15]); 0.5 µM in [5] (setting [17]). Besides, the EC50 is 0.31 ± 0.12 µM in data set [5] (setting [18]); approximately 0.8 µM in data set [8] (Influenza A virus, H1N1, MDCK, read-out: Antiviral EC50 against A/H1N1 virus); 0.84 µM in [6]; 0.3 µM in data set [1]; 0.8 µM in data set [2] (MDCK, 72 h); 0.81 µM in data set [2]. The same molecule returned an EC50 in [10] of 0.95 µM. Besides, in [11], the “Inhibition of H5 HA cell-cell fusion at 6.3 μM” value is reported as “partial”. Also, the “Inhibition of H5 HA cell-cell fusion at 25 μM” value in data set [11] is on record as “almost complete”. In addition, in [11], the “Inhibition of H5 HA cell-cell fusion at 100 μM” value is “complete inhibition”. The “Binding of H1 HA to stem antibody C179 after acidic incubation (pH 5.2) in presence of compound” value in data set [3] is “remained significantly higher”. Further, the “Effect of compound binding to HA (exposed to pH 7) on subsequent binding of antibody C179” value in data set [3] (pH 7) was “no effect”. In addition, the “Cytotoxicity MCC, Microscopy” value in [7] was more than 100 µM. Further, the CC50 in data set [9] was more than 100 µM.
As for `Cc1cc(CNC(=O)c2cc(Br)cc(C(F)(F)F)c2)c(C)s1` [Compound 24, 3-Bromo-N-[(2,5-dimethylthiophen-3-yl)methyl]-5-(trifluoromethyl)benzamide], the EC50 in data set [4] (setting [16]) and in [5] (setting [17]) was more than 100 µM throughout. The “Antiviral activity against A/H1N1 virus (in words)” value (“Antiviral activity” for short) in data set [8] was “abolished the antiviral activity”.
Take `Cc1cc(CNC(=O)c2cc(C(F)(F)F)cc(C(F)(F)F)c2)c(C)s1` [Compound 25, N-[(2,5-Dimethylthiophen-3-yl)methyl]-3,5-bis(trifluoromethyl)benzamide]: the EC50 in data set [4] (setting [16]) and in data set [5] (setting [17]) was more than 100 µM throughout. The “Antiviral activity” value in data set [8] is recorded as “abolished the antiviral activity”.
For the molecule `Cc1cc(Cl)cc(C(=O)NCc2cc(C)sc2C)c1` [Compound 29, 3-Chloro-N-[(2,5-dimethylthiophen-3-yl)methyl]-5-methylbenzamide], the EC50 in data set [4] (setting [16]) and in data set [5] (setting [17]) was more than 100 µM in each case. Besides, the “Antiviral activity” value in data set [8] was “No activity”.
Take `Cc1cc(CNC(=O)c2cc(C(F)(F)F)c(F)c(F)c2F)c(C)s1` [Compound 36, N-((2,5-Dimethylthiophen-3-yl)methyl)-2,3,4-trifluoro-5-(trifluoromethyl)benzamide]: the EC50 in [4] (setting [16]) and in data set [5] (setting [17]) was more than 100 µM in each case. Besides, the “Antiviral activity” value in [8] is “abolished the antiviral effect”.
Consider `Cc1cc(CNC(=O)c2cc(C(F)(F)F)cc(Cl)c2F)c(C)s1` [Compound 37, 3-Chloro-N-((2,5-dimethylthiophen-3-yl)methyl)-2-fluoro-5-(trifluoromethyl)benzamide], for which the EC50 is 2.9 µM in data set [4] (setting [12]), 1.6 ± 0.8 µM in [4] (setting [13]), more than 100 µM in data set [5] (setting [14]) and more than 100 µM in [5] (setting [15]). Further, in data set [8], the “Antiviral activity” value is “less active”. The “Cytotoxicity MCC, Microscopy” value in data set [7] was determined as 56 ± 22 µM. Further, the CC50 in data set [9] is more than 100 µM.
Regarding `Cc1cc(CNC(=O)c2cc(Cl)c(F)c(C(F)(F)F)c2)c(C)s1` [Compound 38, 3-Chloro-N-((2,5-dimethylthiophen-3-yl)methyl)-4-fluoro-5-(trifluoromethyl)benzamide], the EC50 in [4] (setting [12]) is 0.27 ± 0.12 µM; in data set [4] (setting [13]) it was 1.6 ± 0.8 µM; in [5] (setting [14]) it was 0.1 µM; in data set [5] (setting [15]), 3.1 ± 0.5 µM; in data set [5] (setting [18]), 0.18 ± 0.04 µM. Besides, the “ΔΔG (exp), change VF-57a → labelled compound” value in data set [5] is “–0.3 kcal/mol”. Also, the “ΔΔG (exp), change labelled compound → VF-57a” value in data set [5] was 0.3 kcal/mol. The “Antiviral activity” value in data set [8] is on record as “good antiviral activity”. The “Cytotoxicity MCC, Microscopy” value in [7] worked out at 40 µM. For the same molecule, the CC50 in [9] is more than 100 µM.
With `Cc1cc(CNC(=O)c2cc(Cl)cc(C(F)(F)F)c2Cl)c(C)s1` [Compound 39, 2,5-Dichloro-N-((2,5-dimethylthiophen-3-yl)methyl)-3-(trifluoromethyl)benzamide], the EC50 in [4] (setting [12]) is 5.9 ± 3.2 µM; in [4] (setting [13]), 11 ± 6 µM; in [5] (setting [14]), 0.82 ± 0.61 µM; in [5] (setting [15]), 8.1 ± 0.5 µM. Moreover, in data set [8], the “Antiviral activity” value was “less active”. Besides, the “Cytotoxicity MCC, Microscopy” value in data set [7] worked out at 52 ± 25 µM. For the same molecule, the CC50 in [9] was more than 100 µM.
With `Cc1cc(CNC(=O)c2cc(F)cc(C(F)(F)F)c2)c(C)o1` [Compound 54, N-((2,5-Dimethylfuran-3-yl)methyl)-3-fluoro-5-(trifluoromethyl)benzamide], the EC50 in data set [4] (setting [12]) came to 0.47 ± 0.19 µM; in data set [4] (setting [13]), 0.54 ± 0.17 µM; in data set [5] (setting [14]) it was 0.54 ± 0.06 µM; in data set [5] (setting [15]) it was 3.6 ± 2.8 µM. Also, the “Cytotoxicity MCC, Microscopy” value in data set [7] was found to be 100 ± 0 µM. Besides, in data set [9], the CC50 is 79 ± 5 µM.
Regarding `Cc1cc(CNC(=O)c2cc(Cl)cc(C(F)(F)F)c2)c(C)o1` [Compound 55, 3-Chloro-N-((2,5-dimethylfuran-3-yl)methyl)-5-(trifluoromethyl)benzamide], the EC50 in data set [4] (setting [12]) was 0.24 ± 0.08 µM; in data set [4] (setting [13]), 0.54 ± 0.37 µM; in data set [5] (setting [14]), 1.1 ± 0.3 µM; in [5] (setting [15]), more than 100 µM. In addition, in data set [7], the “Cytotoxicity MCC, Microscopy” value came out at 33 ± 0 µM. In data set [9], this molecule came in with a CC50 of 29 µM.
In the case of `Cc1cc(COC(=O)c2cc(F)cc(C(F)(F)F)c2)c(C)s1` [Compound 63, (2,5-Dimethylthiophen-3-yl)methyl 3-fluoro-5-(trifluoromethyl)benzoate], the EC50 in data set [4] (setting [16]) and in data set [5] (setting [17]) was more than 100 µM throughout. Besides, the “Antiviral activity” value in data set [8] is “Neither the ester 63 nor the secondary amine 64 showed antiviral activity; also recorded: inactive”.
In the case of `Cc1cc(CNCc2cc(F)cc(C(F)(F)F)c2)c(C)s1` [Compound 64, 1-(2,5-Dimethylthiophen-3-yl)-N-(3-fluoro-5-(trifluoromethyl)benzyl)methanamine], the EC50 in data set [4] (setting [16]) and in data set [5] (setting [17]) was more than 100 µM in each case. Also, in [8], the “Antiviral activity” value is “Neither the ester 63 nor the secondary amine 64 showed antiviral activity; also recorded: inactive”.
Consider `Cc1cc(C(=O)NCc2cc(F)cc(C(F)(F)F)c2)c(C)s1` [Compound 65, N-(3-Fluoro-5-(trifluoromethyl)benzyl)-2,5-dimethylthiophene-3-carboxamide], for which the EC50 in data set [4] (setting [16]) and in data set [5] (setting [17]) was more than 100 µM each time. For the same molecule, in data set [8], the “Antiviral activity” value was “fully inactive”.
Take `NC(=O)c1ncn([C@@H]2O[C@H](CO)[C@@H](O)[C@H]2O)n1` [Ribavirin, reference compound]: the EC50 in data set [4] (setting [12]) is 38 ± 3 µM; in [4] (setting [13]) it was 27 ± 1 µM; in data set [5] (setting [14]) it was 20 ± 2 µM; in data set [5] (setting [15]), 25 µM. The “Cytotoxicity MCC, Microscopy” value in data set [7] is 80 ± 20 µM. The CC50 in [9] was more than 250 µM.
